# Activity calls are given as the source filed them. The rule behind the calls is not given here.
# Test system: not listed separately
# Test: Cytotoxicity in human MDA-MB-231 cells assessed as reduction in cell viability incubated for 24 hrs by CCK8 assay
# Format: cell-based
# Conditions: not given
row,SMILES,CC50 at 24 h
1,COC(=O)[C@H](CCCNC(=N)N)NC(=O)COc1c(-c2ccc(OCC=C(C)C)cc2)oc2cc(OCC=C(C)C)cc(OCC(=O)N[C@@H](CCCNC(=N)N)C(=O)OC)c2c1=O,> 50 µg/mL

# Test system: Staphylococcus aureus
# Test: Resistance index, ratio of MIC for antibacterial activity against Staphylococcus aureus ATCC 29213 passed over 19 cycles in presence of compound for period of 19 consecutive days by broth microdilution method to MIC for antibacterial activity against Staphylococcus aureus ATCC 29213
# Format: functional
# Conditions: not given
row,SMILES,Ratio
1,COC(=O)[C@H](CCCNC(=N)N)NC(=O)COc1c(-c2ccc(OCC=C(C)C)cc2)oc2cc(OCC=C(C)C)cc(OCC(=O)N[C@@H](CCCNC(=N)N)C(=O)OC)c2c1=O,<=4

# Test system: Staphylococcus aureus
# Test: Induction of cytoplasmic membrane permeabilization in methicillin-resistant Staphylococcus aureus NCTC 10442 at 1 to 8 times MIC by SYTOX green dye based fluorescence assay
# Format: functional, organism-based
# Conditions: not given
row,SMILES,Activity
1,COC(=O)[C@H](CCCNC(=N)N)NC(=O)COc1c(-c2ccc(OCC=C(C)C)cc2)oc2cc(OCC=C(C)C)cc(OCC(=O)N[C@@H](CCCNC(=N)N)C(=O)OC)c2c1=O,Active

# Test system: Staphylococcus aureus
# Test: Antibacterial activity against Staphylococcus aureus ATCC 29213 assessed as suppression of bacterial re-growth at 4 to 8 times MIC incubated for 0.5 to 24 hrs followed by re-plating of cultures and measured after 24 hrs by time kill study relative to control
# Format: functional, organism-based
# Conditions: not given
row,SMILES,Activity
1,COC(=O)[C@H](CCCNC(=N)N)NC(=O)COc1c(-c2ccc(OCC=C(C)C)cc2)oc2cc(OCC=C(C)C)cc(OCC(=O)N[C@@H](CCCNC(=N)N)C(=O)OC)c2c1=O,Active

# Test system: Staphylococcus aureus
# Test: Antibacterial activity against methicillin-resistant Staphylococcus aureus NCTC 10442 assessed as inhibition of bacterial growth incubated for 24 hrs by broth microdilution method
# Format: functional
# Conditions: NCTC 10442, 24 h
row,SMILES,MIC
1,CCCCCCCOc1ccc(-c2oc3cc(OCCCCCCC)cc(O)c3c(=O)c2OCCCN(CC)CC)cc1,> 83.9 µM
2,CC(C)=CCOc1ccc(-c2oc3cc(OCC=C(C)C)cc(O)c3c(=O)c2OCCCN2CCOCC2)cc1,> 91 µM
3,CCCCN(CCCC)CCCOc1c(-c2ccc(OCC=C(C)C)cc2)oc2cc(OCC=C(C)C)cc(O)c2c1=O,> 84.5 µM
4,CCCCCCCOc1ccc(-c2oc3cc(OCCCCCCC)cc(O)c3c(=O)c2O)cc1,> 104 µM
5,CC(C)=CCOc1ccc(-c2oc3cc(OCC=C(C)C)cc(O)c3c(=O)c2OCC(=O)NCCCN(C)C)cc1,22.1 µM
6,CCCOc1ccc(-c2oc3cc(OCCC)cc(O)c3c(=O)c2OCCCN(CC)CC)cc1,12.9 µM
7,CCN(CC)CCCCCOc1c(-c2ccc(OCC=C(C)C)cc2)oc2cc(OCC=C(C)C)cc(O)c2c1=O,22.2 µM
8,CC[N+](C)(CC)CCCOc1c(-c2ccc(OCC=C(C)C)cc2)oc2cc(OCC=C(C)C)cc(O)c2c1=O,4.6 µM
9,COC(=O)[C@H](CCCNC(=N)N)NC(=O)COc1c(-c2ccc(OCC=C(C)C)cc2)oc2cc(OCC=C(C)C)cc(OCC(=O)N[C@@H](CCCNC(=N)N)C(=O)OC)c2c1=O,1.8 µM

# Test system: not listed separately
# Test: Cytotoxicity in human MDA-MB-231 cells assessed as cell viability at 32 times MIC incubated for 24 hrs by CCK8 assay relative to control
# Format: cell-based
# Conditions: read-out: Activity
row,SMILES,"viability at 24 h, 32 times MIC"
1,COC(=O)[C@H](CCCNC(=N)N)NC(=O)COc1c(-c2ccc(OCC=C(C)C)cc2)oc2cc(OCC=C(C)C)cc(OCC(=O)N[C@@H](CCCNC(=N)N)C(=O)OC)c2c1=O,75%

# Test system: Staphylococcus aureus
# Test: Antibacterial activity against methicillin-resistant Staphylococcus aureus N315 assessed as inhibition of bacterial growth incubated for 24 hrs by broth microdilution method
# Format: functional
# Conditions: N315, 24 h
row,SMILES,MIC
1,CCCCCCCOc1ccc(-c2oc3cc(OCCCCCCC)cc(O)c3c(=O)c2OCCCN(CC)CC)cc1,> 83.9 µM
2,CC(C)=CCOc1ccc(-c2oc3cc(OCC=C(C)C)cc(O)c3c(=O)c2OCCCN2CCOCC2)cc1,> 91 µM
3,CCCCN(CCCC)CCCOc1c(-c2ccc(OCC=C(C)C)cc2)oc2cc(OCC=C(C)C)cc(O)c2c1=O,> 84.5 µM
4,CCCCCCCOc1ccc(-c2oc3cc(OCCCCCCC)cc(O)c3c(=O)c2O)cc1,> 104 µM
5,CC(C)=CCOc1ccc(-c2oc3cc(OCC=C(C)C)cc(O)c3c(=O)c2OCC(=O)NCCCN(C)C)cc1,11.1 µM
6,CCCOc1ccc(-c2oc3cc(OCCC)cc(O)c3c(=O)c2OCCCN(CC)CC)cc1,12.9 µM
7,CCN(CC)CCCCCOc1c(-c2ccc(OCC=C(C)C)cc2)oc2cc(OCC=C(C)C)cc(O)c2c1=O,22.2 µM
8,CC[N+](C)(CC)CCCOc1c(-c2ccc(OCC=C(C)C)cc2)oc2cc(OCC=C(C)C)cc(O)c2c1=O,2.3 µM
9,COC(=O)[C@H](CCCNC(=N)N)NC(=O)COc1c(-c2ccc(OCC=C(C)C)cc2)oc2cc(OCC=C(C)C)cc(OCC(=O)N[C@@H](CCCNC(=N)N)C(=O)OC)c2c1=O,1.8 µM

# Test system: Staphylococcus aureus
# Test: Induction of cell surface disruption in Staphylococcus aureus ATCC 29213 at 8 times MIC incubated for 2 hrs by scanning electron microscopy
# Format: functional, organism-based
# Conditions: not given
row,SMILES,Activity
1,COC(=O)[C@H](CCCNC(=N)N)NC(=O)COc1c(-c2ccc(OCC=C(C)C)cc2)oc2cc(OCC=C(C)C)cc(OCC(=O)N[C@@H](CCCNC(=N)N)C(=O)OC)c2c1=O,Active

# Test system: Staphylococcus aureus
# Test: Antibacterial activity against Staphylococcus aureus ATCC 29213 assessed as inhibition of bacterial growth incubated for 24 hrs by broth microdilution method
# Format: functional
# Conditions: ATCC 29213, 24 h
row,SMILES,MIC
1,CCCCCCCOc1ccc(-c2oc3cc(OCCCCCCC)cc(O)c3c(=O)c2OCCCN(CC)CC)cc1,> 83.9 µM
2,CC(C)=CCOc1ccc(-c2oc3cc(OCC=C(C)C)cc(O)c3c(=O)c2OCCCN2CCOCC2)cc1,> 91 µM
3,CCCCN(CCCC)CCCOc1c(-c2ccc(OCC=C(C)C)cc2)oc2cc(OCC=C(C)C)cc(O)c2c1=O,> 84.5 µM
4,CCCCCCCOc1ccc(-c2oc3cc(OCCCCCCC)cc(O)c3c(=O)c2O)cc1,> 104 µM
5,CC(C)=CCOc1ccc(-c2oc3cc(OCC=C(C)C)cc(O)c3c(=O)c2OCC(=O)NCCCN(C)C)cc1,11.1 µM
6,CCCOc1ccc(-c2oc3cc(OCCC)cc(O)c3c(=O)c2OCCCN(CC)CC)cc1,12.9 µM
7,CCN(CC)CCCCCOc1c(-c2ccc(OCC=C(C)C)cc2)oc2cc(OCC=C(C)C)cc(O)c2c1=O,22.2 µM
8,CC[N+](C)(CC)CCCOc1c(-c2ccc(OCC=C(C)C)cc2)oc2cc(OCC=C(C)C)cc(O)c2c1=O,4.6 µM
9,COC(=O)[C@H](CCCNC(=N)N)NC(=O)COc1c(-c2ccc(OCC=C(C)C)cc2)oc2cc(OCC=C(C)C)cc(OCC(=O)N[C@@H](CCCNC(=N)N)C(=O)OC)c2c1=O,1.8 µM

# Test system: Pseudomonas aeruginosa
# Test: Antibacterial activity against Pseudomonas aeruginosa assessed as inhibition of bacterial growth incubated for 24 hrs by broth microdilution method
# Format: functional
# Conditions: not given
row,SMILES,MIC
1,COC(=O)[C@H](CCCNC(=N)N)NC(=O)COc1c(-c2ccc(OCC=C(C)C)cc2)oc2cc(OCC=C(C)C)cc(OCC(=O)N[C@@H](CCCNC(=N)N)C(=O)OC)c2c1=O,12.5 to 25 µg/mL

# Test system: not listed separately
# Test: Cytotoxicity in mouse corneal epithelial cells assessed as cell viability at 32 times MIC incubated for 24 hrs by CCK8 assay relative to control
# Format: cell-based
# Conditions: read-out: Activity
row,SMILES,"viability at 24 h, 32 times MIC"
1,COC(=O)[C@H](CCCNC(=N)N)NC(=O)COc1c(-c2ccc(OCC=C(C)C)cc2)oc2cc(OCC=C(C)C)cc(OCC(=O)N[C@@H](CCCNC(=N)N)C(=O)OC)c2c1=O,70.1%

# Test system: Staphylococcus aureus
# Test: Induction of cytoplasmic membrane permeabilization in Staphylococcus aureus ATCC 29213 at 1 to 8 times MIC by SYTOX green dye based fluorescence assay
# Format: functional, organism-based
# Conditions: not given
row,SMILES,Activity
1,COC(=O)[C@H](CCCNC(=N)N)NC(=O)COc1c(-c2ccc(OCC=C(C)C)cc2)oc2cc(OCC=C(C)C)cc(OCC(=O)N[C@@H](CCCNC(=N)N)C(=O)OC)c2c1=O,Active

# Test system: Staphylococcus aureus
# Test: Induction of bacterial cell membrane integrity loss in Staphylococcus aureus ATCC 29213 incubated for 2 hrs propidium iodide and SYTO9 dye based LIVE/DEAD bacterial viability assay
# Format: functional, organism-based
# Conditions: not given
row,SMILES,Activity
1,COC(=O)[C@H](CCCNC(=N)N)NC(=O)COc1c(-c2ccc(OCC=C(C)C)cc2)oc2cc(OCC=C(C)C)cc(OCC(=O)N[C@@H](CCCNC(=N)N)C(=O)OC)c2c1=O,Active

# Test system: Escherichia coli
# Test: Antibacterial activity against Escherichia coli assessed as inhibition of bacterial growth incubated for 24 hrs by broth microdilution method
# Format: functional
# Conditions: not given
row,SMILES,MIC
1,COC(=O)[C@H](CCCNC(=N)N)NC(=O)COc1c(-c2ccc(OCC=C(C)C)cc2)oc2cc(OCC=C(C)C)cc(OCC(=O)N[C@@H](CCCNC(=N)N)C(=O)OC)c2c1=O,12.5 to 25 µg/mL

# Test system: Staphylococcus aureus
# Test: Antibacterial activity against Staphylococcus aureus ATCC 29213 infected in C57BL6 mouse assessed as reduction in bacterial count at 0.5% treated topically 4 times per day for 3 days starting from 1 day after infection relative to control
# Format: functional
# Conditions: not given
row,SMILES,Activity
1,COC(=O)[C@H](CCCNC(=N)N)NC(=O)COc1c(-c2ccc(OCC=C(C)C)cc2)oc2cc(OCC=C(C)C)cc(OCC(=O)N[C@@H](CCCNC(=N)N)C(=O)OC)c2c1=O,3.28 log10CFU

# Test system: Staphylococcus aureus
# Test: Antibacterial activity against Staphylococcus aureus ATCC 29213 assessed as induction of bacterial killing at 4 times MIC incubated for 1 hrs followed by re-plating of cultures and measured after 24 hrs by time kill study relative to control
# Format: functional
# Conditions: not given
row,SMILES,LCK
1,COC(=O)[C@H](CCCNC(=N)N)NC(=O)COc1c(-c2ccc(OCC=C(C)C)cc2)oc2cc(OCC=C(C)C)cc(OCC(=O)N[C@@H](CCCNC(=N)N)C(=O)OC)c2c1=O,3.21

# Test system: Staphylococcus aureus
# Test: Antibacterial activity against Staphylococcus aureus ATCC 29213 assessed as induction of bacterial killing at 8 times MIC incubated for 0.5 hrs followed by re-plating of cultures and measured after 24 hrs by time kill study relative to control
# Format: functional
# Conditions: not given
row,SMILES,LCK
1,COC(=O)[C@H](CCCNC(=N)N)NC(=O)COc1c(-c2ccc(OCC=C(C)C)cc2)oc2cc(OCC=C(C)C)cc(OCC(=O)N[C@@H](CCCNC(=N)N)C(=O)OC)c2c1=O,3.22

# Test system: Staphylococcus aureus
# Test: Antibacterial activity against Staphylococcus aureus ATCC 29213 assessed as bacterial cell killing at 4 times MIC incubated for 1 hrs followed by re-plating of cultures and measured after 24 hrs by time kill study relative to control
# Format: functional
# Conditions: not given
row,SMILES,Activity
1,COC(=O)[C@H](CCCNC(=N)N)NC(=O)COc1c(-c2ccc(OCC=C(C)C)cc2)oc2cc(OCC=C(C)C)cc(OCC(=O)N[C@@H](CCCNC(=N)N)C(=O)OC)c2c1=O,>=99.9%

# Test system: not listed separately
# Test: Induction of hemolysis in rabbit RBC incubated for 1 hr
# Format: cell-based, Oryctolagus cuniculus, Erythrocyte
# Conditions: rabbit red blood cells (erythrocytes)
row,SMILES,HC50 at 1 h
1,CCCCCCCOc1ccc(-c2oc3cc(OCCCCCCC)cc(O)c3c(=O)c2OCCCN(CC)CC)cc1,> 336 µM
2,CC(C)=CCOc1ccc(-c2oc3cc(OCC=C(C)C)cc(O)c3c(=O)c2OCCCN2CCOCC2)cc1,> 364 µM
3,CCCCN(CCCC)CCCOc1c(-c2ccc(OCC=C(C)C)cc2)oc2cc(OCC=C(C)C)cc(O)c2c1=O,> 338 µM
4,CCCCCCCOc1ccc(-c2oc3cc(OCCCCCCC)cc(O)c3c(=O)c2O)cc1,> 414 µM
5,CC(C)=CCOc1ccc(-c2oc3cc(OCC=C(C)C)cc(O)c3c(=O)c2OCC(=O)NCCCN(C)C)cc1,287 µM
6,CCCOc1ccc(-c2oc3cc(OCCC)cc(O)c3c(=O)c2OCCCN(CC)CC)cc1,121 µM
7,CCN(CC)CCCCCOc1c(-c2ccc(OCC=C(C)C)cc2)oc2cc(OCC=C(C)C)cc(O)c2c1=O,99 µM
8,CC[N+](C)(CC)CCCOc1c(-c2ccc(OCC=C(C)C)cc2)oc2cc(OCC=C(C)C)cc(O)c2c1=O,88.2 µM
9,COC(=O)[C@H](CCCNC(=N)N)NC(=O)COc1c(-c2ccc(OCC=C(C)C)cc2)oc2cc(OCC=C(C)C)cc(OCC(=O)N[C@@H](CCCNC(=N)N)C(=O)OC)c2c1=O,> 228 µM

# Reference: ChEMBL document CHEMBL4602730, “In Vitro and in Vivo Evaluation of Membrane-Active Flavone Amphiphiles: Semisynthetic Kaempferol-Derived Antimicrobials against Drug-Resistant Gram-Positive Bacteria” (J Med Chem, 2020)
